Reference: US9211420B2, “Kit containing photosensitizing dyes” (Colgate-Palmolive Company, priority 2009, dated 2015)
Entries after “also recorded” stand apart in the source; their conditions may differ.

Test system: TNFα of HEPM cells stimulated by IL-1β
Assay: Cytokine concentration in IL-1β-stimulated cell culture after light plus photosensitizing dye
Assay type: cell-based, human
Conditions: Fast Green at 1000 ppm combined with light at 625 nm for 2 minutes (9 mW/cm^2, 1.1 J/cm^2)
Experimental: Cells used in this example include human embryonic palatal mesenchymal (HEFM) cells and oral keratinocytes OBA9 cells. The embodiments also can be used with other cells such as human gingival fibroblasts (HGF). Cells were seeded in 24-well plates and cultured until reaching a confluence above 80%. The confluent-stage cells were treated with stimulants such as IL-1β followed by light irradiation alone, or light irradiation combined with GRAS photosensitizing dye. The cells were either pre-incubated in photosensitizing dye before light exposure, or administered at the same time of light exposure. The cells were incubated in photosensitizing dyes for varied amounts of time, the concentration of photosensitizing dyes were varied, and the cell were irradiated with light for varied amounts of time per exposure, as well as irradiation either one time or multiple times, as described below. After irradiation, the cells were incubated at 37° C. The cell culture media was collected after a certain amount of time for cytokine analysis. The results tabulated below reveal that visible light (various wavelength, 380-700 nm) alone and photosensitizing dye irradiated with visible light (various wavelength, 380-700 nm) have anti-inflammation effect. […]

With `CCN(Cc1cccc(S(=O)(=O)[O-])c1)c1ccc(C(=C2C=CC(=[N+](CC)Cc3cccc(S(=O)(=O)[O-])c3)C=C2)c2ccc(O)cc2S(=O)(=O)[O-])cc1.[Na+].[Na+]` [Fast Green, Fast Green FCF (FD&C Green No. 3)] the “Effect on TNFα concentration in the in vitro cell culture” value was “can decrease pro-inflammation cytokine TNFα concentration; also recorded: can reduce concentration of TNFα”.
